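Cells were grown in 96-well plates and exposed to each compound for 48 hours at five concentrations; endpoints were interpolated linearly between bracketing concentrations, or set to the highest concentration if not reached. TGI: total growth inhibition.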 *1 amine or outer side, *2 acyl side, *3 side chain or, on linkers, in order; H or OH if unused. Where a SMILES comes first, the peptide text is derived from it. [ ]: non-standard residue; d: D form. ξ: configuration not given here. Ile(3ξ) = CCC(C)[C@H](N)C(=O)O; X33 = C=CCC(O[*:1])C(=O)[*:2]; NMeV = CN[C@H](C(=O)O)C(C)C; NMeA = CN[C@@H](C)C(=O)O; βAla = NCCC(=O)O
Tests used:
Assay in all cases: NCI-60 cell line screen, 48 h
786-0 renal = system: 786-0 renal
A549 NSCLC = system: A549 NSCLC
ACHN renal = system: ACHN renal
CAKI-1 renal = system: CAKI-1 renal
CCRF-CEM leukemia = system: CCRF-CEM leukemia
COLO 205 colon = system: COLO 205 colon
DLD-1 colon = system: DLD-1 colon
DMS 114 small cell lung = system: DMS 114 small cell lung
DMS 273 small cell lung = system: DMS 273 small cell lung
EKVX NSCLC = system: EKVX NSCLC
HCC-2998 colon = system: HCC-2998 colon
HCT-116 colon = system: HCT-116 colon
HCT-15 colon = system: HCT-15 colon
HL-60(TB) leukemia = system: HL-60(TB) leukemia
HOP-18 NSCLC = system: HOP-18 NSCLC
HOP-92 NSCLC = system: HOP-92 NSCLC
HT29 colon = system: HT29 colon
IGROV1 ovarian = system: IGROV1 ovarian
K-562 leukemia = system: K-562 leukemia
KM12 colon = system: KM12 colon
KM20L2 colon = system: KM20L2 colon
LOX IMVI melanoma = system: LOX IMVI melanoma
LXFL 529 NSCLC = system: LXFL 529 NSCLC
M14 melanoma = system: M14 melanoma
M19-MEL melanoma = system: M19-MEL melanoma
MALME-3M melanoma = system: MALME-3M melanoma
MOLT-4 leukemia = system: MOLT-4 leukemia
NCI-H226 lung = system: NCI-H226 lung
NCI-H23 lung = system: NCI-H23 lung
NCI-H460 lung = system: NCI-H460 lung
NCI-H522 lung = system: NCI-H522 lung
OVCAR-3 ovarian = system: OVCAR-3 ovarian
OVCAR-4 ovarian = system: OVCAR-4 ovarian
OVCAR-5 ovarian = system: OVCAR-5 ovarian
OVCAR-8 ovarian = system: OVCAR-8 ovarian
RXF-631 renal = system: RXF-631 renal
SF-268 CNS = system: SF-268 CNS
SF-295 CNS = system: SF-295 CNS
SF-539 CNS = system: SF-539 CNS
SK-MEL-2 melanoma = system: SK-MEL-2 melanoma
SK-MEL-28 melanoma = system: SK-MEL-28 melanoma
SK-MEL-5 melanoma = system: SK-MEL-5 melanoma
SK-OV-3 ovarian = system: SK-OV-3 ovarian
SN12C renal = system: SN12C renal
SNB-19 CNS = system: SNB-19 CNS
SNB-75 CNS = system: SNB-75 CNS
SR leukemia = system: SR leukemia
SW-620 colon = system: SW-620 colon
TK-10 renal = system: TK-10 renal
U251 CNS = system: U251 CNS
UACC-257 melanoma = system: UACC-257 melanoma
UACC-62 melanoma = system: UACC-62 melanoma
UO-31 renal = system: UO-31 renal
A498 renal = system: A498 renal
HOP-62 NSCLC = system: HOP-62 NSCLC
RPMI-8226 leukemia = system: RPMI-8226 leukemia
RXF 393 renal = system: RXF 393 renal
SNB-78 CNS = system: SNB-78 CNS
XF 498 CNS = system: XF 498 CNS

SMILES: COC(=O)C1Cc2c([nH]c3ccccc23)C(C2CCCCC2)N1 (configuration not stated)
- TGI (786-0 renal): > 100 µM
- TGI (A549 NSCLC): > 100 µM
- TGI (ACHN renal): > 100 µM
- TGI (CAKI-1 renal): > 100 µM
- TGI (CCRF-CEM leukemia): > 100 µM
- TGI (COLO 205 colon): > 100 µM
- TGI (DLD-1 colon): > 100 µM
- TGI (DMS 114 small cell lung): > 100 µM
- TGI (DMS 273 small cell lung): > 100 µM
- TGI (EKVX NSCLC): > 100 µM
- TGI (HCC-2998 colon): > 100 µM
- TGI (HCT-116 colon): > 100 µM
- TGI (HCT-15 colon): > 100 µM
- TGI (HL-60(TB) leukemia): > 100 µM
- TGI (HOP-18 NSCLC): > 100 µM
- TGI (HOP-92 NSCLC): > 100 µM
- TGI (HT29 colon): > 100 µM
- TGI (IGROV1 ovarian): > 100 µM
- TGI (K-562 leukemia): > 100 µM
- TGI (KM12 colon): > 100 µM
- TGI (KM20L2 colon): > 100 µM
- TGI (LOX IMVI melanoma): > 100 µM
- TGI (LXFL 529 NSCLC): > 100 µM
- TGI (M14 melanoma): > 100 µM
- TGI (M19-MEL melanoma): > 100 µM
- TGI (MALME-3M melanoma): > 100 µM
- TGI (MOLT-4 leukemia): > 100 µM
- TGI (NCI-H226 lung): > 100 µM
- TGI (NCI-H23 lung): > 100 µM
- TGI (NCI-H460 lung): > 100 µM
- TGI (NCI-H522 lung): > 100 µM
- TGI (OVCAR-3 ovarian): > 100 µM
- TGI (OVCAR-4 ovarian): > 100 µM
- TGI (OVCAR-5 ovarian): > 100 µM
- TGI (OVCAR-8 ovarian): > 100 µM
- TGI (RXF-631 renal): > 100 µM
- TGI (SF-268 CNS): > 100 µM
- TGI (SF-295 CNS): > 100 µM
- TGI (SF-539 CNS): > 100 µM
- TGI (SK-MEL-2 melanoma): > 100 µM
- TGI (SK-MEL-28 melanoma): > 100 µM
- TGI (SK-MEL-5 melanoma): > 100 µM
- TGI (SK-OV-3 ovarian): > 100 µM
- TGI (SN12C renal): > 100 µM
- TGI (SNB-19 CNS): > 100 µM
- TGI (SNB-75 CNS): > 100 µM
- TGI (SR leukemia): > 100 µM
- TGI (SW-620 colon): > 100 µM
- TGI (TK-10 renal): > 100 µM
- TGI (U251 CNS): > 100 µM
- TGI (UACC-257 melanoma): > 100 µM
- TGI (UACC-62 melanoma): > 100 µM
- TGI (UO-31 renal): > 100 µM

SMILES: COc1ccc(C(=C[N+](=O)[O-])c2ccc(OC)cc2)cc1
- TGI (786-0 renal): > 89 µM
- TGI (A498 renal): 41.3 µM
- TGI (A549 NSCLC): > 100 µM
- TGI (ACHN renal): > 100 µM
- TGI (CAKI-1 renal): > 100 µM
- TGI (CCRF-CEM leukemia): > 92.7 µM
- TGI (COLO 205 colon): 15.5 µM
- TGI (DLD-1 colon): > 84.3 µM
- TGI (DMS 114 small cell lung): 23.7 µM
- TGI (DMS 273 small cell lung): 22.9 µM
- TGI (EKVX NSCLC): > 100 µM
- TGI (HCC-2998 colon): 31.5 µM
- TGI (HCT-116 colon): 27.8 µM
- TGI (HCT-15 colon): > 100 µM
- TGI (HL-60(TB) leukemia): > 34.7 µM
- TGI (HOP-18 NSCLC): > 100 µM
- TGI (HOP-62 NSCLC): 50.6 µM
- TGI (HOP-92 NSCLC): > 100 µM
- TGI (HT29 colon): 20.1 µM
- TGI (IGROV1 ovarian): > 63.3 µM
- TGI (K-562 leukemia): > 100 µM
- TGI (KM12 colon): > 46.5 µM
- TGI (KM20L2 colon): 26.9 µM
- TGI (LOX IMVI melanoma): 46.4 µM
- TGI (LXFL 529 NSCLC): > 100 µM
- TGI (M14 melanoma): 41.8 µM
- TGI (MALME-3M melanoma): > 100 µM
- TGI (MOLT-4 leukemia): 29.3 µM
- TGI (NCI-H226 lung): 52.4 µM
- TGI (NCI-H23 lung): > 57.1 µM
- TGI (NCI-H460 lung): 54.7 µM
- TGI (NCI-H522 lung): 32.7 µM
- TGI (OVCAR-3 ovarian): 46.1 µM
- TGI (OVCAR-4 ovarian): > 100 µM
- TGI (OVCAR-5 ovarian): 99.5 µM
- TGI (OVCAR-8 ovarian): 37.9 µM
- TGI (RPMI-8226 leukemia): 26.3 µM
- TGI (RXF 393 renal): 49.1 µM
- TGI (RXF-631 renal): > 100 µM
- TGI (SF-268 CNS): > 100 µM
- TGI (SF-295 CNS): 25.1 µM
- TGI (SF-539 CNS): 29.3 µM
- TGI (SK-MEL-2 melanoma): 33.3 µM
- TGI (SK-MEL-28 melanoma): > 100 µM
- TGI (SK-MEL-5 melanoma): > 100 µM
- TGI (SK-OV-3 ovarian): 36.2 µM
- TGI (SN12C renal): > 100 µM
- TGI (SNB-19 CNS): > 94.4 µM
- TGI (SNB-75 CNS): 30.3 µM
- TGI (SNB-78 CNS): > 84.5 µM
- TGI (SR leukemia): 45.1 µM
- TGI (SW-620 colon): > 73.3 µM
- TGI (TK-10 renal): 99.3 µM
- TGI (U251 CNS): 17.9 µM
- TGI (UACC-257 melanoma): > 92.6 µM
- TGI (UACC-62 melanoma): > 100 µM
- TGI (UO-31 renal): 88.9 µM

SMILES: C=CCC1OC(=O)CCNC(=O)[C@H](C)N(C)C(=O)[C@H](C(C)C)N(C)C(=O)[C@H](C(C)CC)NC(=O)[C@@H]2CCCN2C1=O (some centres not stated) (cyclo([Ile(3ξ)][NMeV][NMeA][βAla][X33]P))
- TGI (786-0 renal): > 100 µM
- TGI (A498 renal): > 100 µM
- TGI (A549 NSCLC): > 100 µM
- TGI (ACHN renal): > 100 µM
- TGI (CAKI-1 renal): > 78.6 µM
- TGI (CCRF-CEM leukemia): > 100 µM
- TGI (COLO 205 colon): > 100 µM
- TGI (DLD-1 colon): > 100 µM
- TGI (DMS 114 small cell lung): > 100 µM
- TGI (DMS 273 small cell lung): 28.9 µM
- TGI (EKVX NSCLC): > 100 µM
- TGI (HCC-2998 colon): 27.7 µM
- TGI (HCT-116 colon): > 100 µM
- TGI (HCT-15 colon): > 100 µM
- TGI (HL-60(TB) leukemia): > 100 µM
- TGI (HOP-62 NSCLC): > 21 µM
- TGI (HOP-92 NSCLC): > 30.9 µM
- TGI (HT29 colon): > 100 µM
- TGI (IGROV1 ovarian): > 100 µM
- TGI (K-562 leukemia): > 71.6 µM
- TGI (KM12 colon): > 100 µM
- TGI (KM20L2 colon): > 52 µM
- TGI (LOX IMVI melanoma): > 31.7 µM
- TGI (LXFL 529 NSCLC): > 100 µM
- TGI (M14 melanoma): 7.87 µM
- TGI (M19-MEL melanoma): > 67.6 µM
- TGI (MALME-3M melanoma): 16.5 µM
- TGI (MOLT-4 leukemia): > 100 µM
- TGI (NCI-H226 lung): 29.2 µM
- TGI (NCI-H23 lung): > 100 µM
- TGI (NCI-H460 lung): > 100 µM
- TGI (OVCAR-3 ovarian): > 100 µM
- TGI (OVCAR-4 ovarian): > 100 µM
- TGI (OVCAR-5 ovarian): > 100 µM
- TGI (OVCAR-8 ovarian): > 100 µM
- TGI (RPMI-8226 leukemia): > 100 µM
- TGI (RXF 393 renal): > 100 µM
- TGI (RXF-631 renal): > 100 µM
- TGI (SF-268 CNS): 58.4 µM
- TGI (SF-295 CNS): > 100 µM
- TGI (SF-539 CNS): > 79.4 µM
- TGI (SK-MEL-2 melanoma): 12.6 µM
- TGI (SK-MEL-28 melanoma): > 100 µM
- TGI (SK-MEL-5 melanoma): 10.4 µM
- TGI (SK-OV-3 ovarian): > 100 µM
- TGI (SN12C renal): > 100 µM
- TGI (SNB-19 CNS): > 100 µM
- TGI (SNB-75 CNS): > 90.5 µM
- TGI (SNB-78 CNS): > 100 µM
- TGI (SR leukemia): > 100 µM
- TGI (SW-620 colon): > 100 µM
- TGI (TK-10 renal): > 100 µM
- TGI (U251 CNS): > 100 µM
- TGI (UACC-257 melanoma): 36.3 µM
- TGI (UACC-62 melanoma): > 46.2 µM
- TGI (UO-31 renal): 99.6 µM
- TGI (XF 498 CNS): 41.8 µM

Source: PubChem BioAssay (NCI)
